Results from patent US20230255927A1 (ELANCO TIERGESUNDHEIT AG, priority 2022, published 2023).

System: lactating Holstein cows
Assay: Wisconsin Study: dietary monensin fed to lactating cows for 9 weeks
Assay type: in vivo
Experimental: Methods: […] All cows received 11 g/ton Rumensin for a 5-week covariate period after which pens received 1 of 4 dietary treatments (n=3) formulated to provide 0 g/ton (Control, “CON”), 11 g/ton (R11), 14.5 g/ton (R14.5), or 18 g/ton (R18) of Rumensin for 9 weeks. Basal diet was 54% forage and 27% Neutral Detergent Fiber (NDF), 29% starch, and 2.3% Rumen Unsaturated Fatty Acid Load (RUFAL). The pen was the experimental unit, and data were analyzed using the Fit Model Procedure of JMP with treatment as a fixed effect and pen as a random effect. LS-means were determined and contrasts of CON vs. R11, CON vs. R14.5, CON vs. R18, and linear and quadratic effects were tested.

[1] = all treatments, not affected by treatment

## CC[C@@]1([C@@H]2O[C@@H]([C@H]3O[C@@](O)(CO)[C@H](C)C[C@@H]3C)C[C@@H]2C)CC[C@H]([C@]2(C)CC[C@]3(C[C@H](O)[C@@H](C)[C@@H]([C@@H](C)[C@@H](OC)[C@H](C)C(=O)O)O3)O2)O1 [monensin]
R11, 11 g/ton
  DMI: 60 lb/d
  De novo fatty acid yield: 0.99 g/100 g milk
  ECM: 106 lb/d
  Estimated Dietary Energy: 1.70 Mcal/kg DM
  Milk Fat: 4.13%
  Milk Yield: 98 lb/d
  Protein: 3.16%
R11, 11 g/ton, P=0.04
  Milk fat yield increase vs. CON: 0.08 kg/day
R11, 11 g/ton, P=0.05
  ECM/DMI increase vs. CON: 2.9%
R11, 11 g/ton, P=0.09
  ECM increase vs CON: 1.3 kg/day
R14.5, 14.5 g/ton
  DMI: 60 lb/d
  ECM: 105 lb/d
  Estimated Dietary Energy: 1.71 Mcal/kg DM
  Milk Fat: 4.04%
  Milk Yield: 99 lb/d
  Protein: 3.14%
R14.5, 14.5 g/ton, P=0.02
  ECM/DMI increase vs. CON: 3.5%
R18, 18 g/ton
  DMI: 58 lb/d
  ECM: 102 lb/d
  Estimated Dietary Energy: 1.73 Mcal/kg DM
  Milk Fat: 3.97%
  Milk Yield: 97 lb/d
  Protein: 3.14%
R18, 18 g/ton, P=0.01
  Estimated dietary energy increase vs. CON: 3.0%
R18, 18 g/ton, P=0.09
  ECM/DMI increase vs. CON: 2.3%
R18, 18 g/ton, listed as Rumensin
  DMI: 26.4 kg/day
[1]
  Milk Yield: 44 kg/day
  Milk fat percentage: 4.0%
  Milk protein percentage: 3.2%
  Milk protein yield: 1.4 kg/day
